From patent publication EP4567040A1, “CRYSTAL FORM OF FUSED TRICYCLIC DERIVATIVE AND PREPARATION METHOD” (Jiangsu Hengrui Pharmaceuticals Co., Ltd., priority 2022, dated 2024)
In brackets after ≈: the same amount, converted by molar mass.

What was measured:
[1] = Thermodynamic solubility testing in pH 7.4 phosphate buffer; type: physicochemical; details: sodium phosphate buffer, aqueous buffer, thermodynamic from solid, 25 °C
Description: The thermodynamic solubility of the compounds in a pH 7.4 phosphate buffer was determined. Both the sample supernatant and the standard of a known concentration were tested by LC/MS/MS.
15.6 g of NaH2PO4·2H2O was weighed out, placed into a 1 L glass flask, and dissolved in 1 L of deionized water. The pH of the solution was approximately 4.7, and then the pH was adjusted to 7.4 with 10 M NaOH.
1 mg of each compound powder was accurately weighed out and placed in a glass tube. The pH 7.4 sodium phosphate buffer was added to the glass tube, with 1 mL of the buffer added for each milligram of the compound powder. A stirring bar was added to each glass tube, and the glass tube was closed with a cap. […] The observations in each glass tube were recorded. […] The recorded observations and dilution factors
1 mg of each compound powder was accurately weighed out and added to a glass tube, and DMSO was added to each glass tube, with 1 mL of DMSO added for each milligram of the compound powder. […] Samples were analyzed by LC/MS/MS. […]
All calculations were performed using Microsoft Excel. Samples were analyzed by LC/MS/MS and quantified based on the standard of a known concentration. The solubility of the test compounds was calculated using the following formula: [Sample] = Area Ratio sample × DF sample × [STD] / Area Ratio STD DF: dilution factor. […]

[2] = tested on: DPX2 (HepG2 cells were stably transfected with the human PXR gene and the fluorescent reporter gene) cells; experiment: Cell viability in the PXR induction assay (CellTiter-Fluor); type: cell-based
Description: • 1. The potential of the test compounds to induce the activity of drug metabolism enzymes through in vitro activation of PXR was evaluated. […] […] Experimental procedures • 3.1. Preparation for plating • 1) 50 mL of FBS was added to 450 mL of cell culture medium. • 2) DPX2 cells were cultured in a T-75 culture flask in a 37 °C, 5% CO2 incubator with 95% relative humidity. When covering 80-90% of the bottom of the culture flask, the cells were digested. • 3) The top layer of cells cultured in the T-75 culture flask was washed with 8 mL of PBS, and the PBS was pipetted off. The cells were digested with 3 mL of pancreatin at 37 °C for about 5 min or until they were floating in the pancreatin. 10 mL (excessive) of a serum-containing culture medium was added to neutralize the pancreatin. • 4) The cell suspension was transferred to a conical-bottomed centrifuge tube and centrifuged at 120 g for 10 min. The cells were suspended in the plating culture medium, and the concentration was adjusted to 4 × 10^5 cells/mL. The diluted cells were added to a 96-well cell culture plate at 100 µL/well. The culture plate was placed in an incubator and incubated at 37 °C for 24 h before the PXR activation experiment. • 3.2. […] […] The final concentration of DMSO was 0.1%. 1 µL of DMSO was added to a well containing 1 mL of pre-incubated culture medium as a solvent control. • 2) The cell culture plate was taken out of the incubator, and the culture medium was discarded. The test compounds and the positive compound were added to appropriate wells at 100 µL/well, and each group was tested in duplicate. The cell plate was placed in an incubator and incubated for 24 h. • 3.3. Quantification of PXR activation • 1) After […] of compound treatment, PXR activation was quantified for the culture. • 2) The CellTiter-Fluor™ cell viability assay kit and the One-Glo Luciferase reagent were equilibrated to room temperature. The GF-AFC (10 µL) substrate was added to Assay Buffer (10 mL) to form a 2× reagent, and the reagent was then diluted to 1× with 10 mL of PBS; the ONE-Glo substrate was added to the ONE-Glo Luciferase Assay buffer. • 3) The cell culture plate was taken out of the incubator, and the culture medium in each well was discarded. The plate was washed twice with PBS. The 1× CellTiter-Fluor™ reagent was added to a sterilized reagent reservoir, and 50 µL was transferred to each well using a multi-channel pipette. The plate was incubated at 37 °C for 30 min. • 4) The 96-well cell plate was taken out of the incubator, and the fluorescence in each well was measured using a microplate reader put in the fluorescence mode at an excitation wavelength of 400 nm and an emission wavelength of 505 nm. • 5) The ONE-Glo reagent was poured into a reagent reservoir, and then 50 µL was transferred to each well using a multi-channel pipette. The reagent was gently and well mixed, and the mixture was incubated and well mixed at room temperature for 5 min. After the incubation, the luminescence in each well was measured using a luminometer.
The calculation formula for cell viability: Percent cell viability (%) = I(sample)/(I(vehicle) × 100 [formula]
I(sample) represents the fluorescence intensity of the sample, and I(vehicle) represents the fluorescence intensity of 0.1% DMSO to cells.

[3] = target: CYP2C19 (Homo sapiens, UniProt P33261); experiment: biochemical
Description: The effects of different concentrations of the test compounds on the metabolic reactions of phenacetin (CYP1A2), diclofenac sodium (CYP2C9), S-mephenytoin (CYP2C19), bufuralol hydrochloride (CYP2D6), and midazolam (CYP3A4/5) were assessed by liquid chromatography-tandem mass spectrometry (LC/MS/MS).
Then, 200 µL of an acetonitrile solution containing 3% formic acid and 40 nM internal standard verapamil was added, and the mixture was centrifuged at 4000 rpm for 50 min. The mixture was cooled on ice for 20 min and centrifuged at 4000 rpm for 20 min to precipitate protein. 200 µL of the supernatant was taken for LC/MS/MS analysis.
The peak area was calculated based on the chromatogram. The residual activity proportion (%) was calculated using the following formula: peak area ratio = peak area of metabolite / peak area of internal standard [formula]
The half maximal inhibitory concentrations (IC50) against CYP were calculated using Excel XLfit 5.3.1.3.

[4] = compound concentration 0.123 µM

Sequence of CYP2C19 (P33261 whole entry): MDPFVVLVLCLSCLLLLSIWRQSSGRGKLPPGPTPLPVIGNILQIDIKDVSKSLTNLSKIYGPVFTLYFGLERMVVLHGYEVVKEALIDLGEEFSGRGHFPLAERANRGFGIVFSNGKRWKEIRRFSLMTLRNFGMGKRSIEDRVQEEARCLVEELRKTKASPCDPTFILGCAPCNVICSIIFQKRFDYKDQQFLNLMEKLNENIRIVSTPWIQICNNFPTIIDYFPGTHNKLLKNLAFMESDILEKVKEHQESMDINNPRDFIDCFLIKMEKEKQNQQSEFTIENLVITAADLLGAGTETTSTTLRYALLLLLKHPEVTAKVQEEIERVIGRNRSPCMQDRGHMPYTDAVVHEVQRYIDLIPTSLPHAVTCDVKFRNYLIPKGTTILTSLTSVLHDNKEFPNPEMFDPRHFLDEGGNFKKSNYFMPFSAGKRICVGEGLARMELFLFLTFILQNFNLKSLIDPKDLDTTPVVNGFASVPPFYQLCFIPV

## C[C@H]1COc2c(-c3nc(N[C@@H]4CCOC[C@H]4O)ncc3Cl)cc(F)c3nc(C(C)(C)O)n1c23 (single isomer, unassigned) [Isomer 1 with a retention time of 2.078 min]
[1]
  solubility at 24 h: 2200 µM (≈ 1050 µg/mL)
[2]; [4]
  Cell viability (%): 99.16%
[2]; compound concentration 10.0 µM
  Cell viability (%): 117.18%
[3]
  IC50: > 30 µM

## C[C@@H]1COc2c(-c3nc(N[C@@H]4CCOC[C@H]4O)ncc3Cl)cc(F)c3nc(C(C)(C)O)n1c23 (single isomer, unassigned) [Isomer 2 with a retention time of 1.887 min]
[1]
  solubility at 24 h: 2130 µM (≈ 1020 µg/mL)
[2]; [4]
  Cell viability (%): 102.41%
[2]; compound concentration 10.0 µM
  Cell viability (%): 108.37%
[3]
  IC50: > 30 µM
